Here are results for 12 compounds from patent US20250066360A1, “PYRIDINE-CONTAINING POLYCYCLIC DERIVATIVE, AND PREPARATION METHOD THEREFOR AND USE THEREOF” (SHANGHAI HANSOH BIOMEDICAL CO., LTD., priority 2022, published 2025).

For one assay, the system named is TNF-α in U937 cells. Kind of assay: Inhibition of the expression level of TNF-α in LPS-stimulated U937 cells (ELISA). It counts as cell-based. As to conditions: Homo sapiens, U-937; PMA-differentiated U937, 10 ng/ml LPS 4 hours; read-out: U937 cell activity test TNF-α IC50. Here is the method:
U937 cells were treated with 20 ng/ml PMA for differentiation overnight, and after replacement with a fresh culture medium, the U937 cells were rested overnight. After differentiation, the U937 cells were digested and counted, and 50,000 cells per well were seeded in a 96-well plate until the cells adhered to the wall. A compound concentration gradient was prepared, the cells were pretreated with the compound for 1 hour (the highest final concentration of the compound was 1 μM, diluted in 3-fold concentration gradient), and 10 ng/ml LPS (Lipopolysaccharides from Escherichia coli O111:B4) was added for stimulation for 4 hours. Thereafter, the culture supernatant was collected by centrifugation and used for subsequent ELISA to detect the concentration of TNF-α in the supernatant. The concentration of TNF-α was detected according to the standard steps provided by the ELISA kit manufacturer.
A standard curve was plotted by a linear regression method from a TNF-α standard, and the concentration of TNF-α in a sample was derived by conversion according to the standard curve.
Calculation of inhibition rate: Inhibition rate %=[(mean value of TNF-α concentration in positive control well−mean value of TNF-α concentration in sample well)/(mean value of TNF-α concentration in positive control well−mean value of TNF-α concentration in negative control well)]×100%, wherein the positive control well was a well without a compound (DMSO-treated well), and the negative control well was a culture medium well.
Dose response curve fitting: Log(inhibitor) vs. response−Variable slope (four parameters) in GraphPad Prism 6 was used for fitting equation analysis of the compound concentration and the corresponding inhibition rate, and the curve was fitted to obtain the IC50 value of the compound. The fitting calculation equation was Y=Bottom+(Top−Bottom)/(1+10^((Log IC50−X)*HillSlope)).
(In general: In an ELISA, binding on a coated surface is turned into a signal by an enzyme label.)

The subject of the next assay is p-Hsp27 in U937 cells. Kind of assay: Inhibition of p-Hsp27 in LPS-stimulated U937 cells (ELISA). It counts as cell-based. As to conditions: Homo sapiens, U-937; PMA-differentiated U937, 10 ng/ml LPS 0.5 hours; read-out: U937 cell activity test p-HSP27 IC50. Here is the method: U937 cells were treated with 20 ng/ml PMA for differentiation overnight, and after replacement with a fresh culture medium, the U937 cells were rested overnight. After differentiation, the U937 cell were digested and counted, and 25,000 cells per well were seeded in a 96-well plate until the cells adhered to the wall. A compound concentration gradient was prepared, the cells were pretreated with the compound for 1 hour (the highest final concentration of the compound was 1 μM, diluted in 3-fold concentration gradient), and 10 ng/ml LPS (Lipopolysaccharides from Escherichia coli O111:B4) was added for stimulation for 0.5 hours. After the cells were washed with PBS, the cells were lysed with a lysis solution. p-Hsp27 in the cell lysate was detected by using Phospho-HSP27 (S78/S82) DuoSet IC ELISA kit. For specific steps, reference could be made to the standard steps provided by the kit manufacturer.
Calculation of p-Hsp27 inhibition rate: Inhibition rate %=[(mean value of p-Hsp27 in positive control well−mean value of p-Hsp27 in sample well)/(mean value of p-Hsp27 in positive control well−mean value of p-Hsp27 in negative control well)]×100%, wherein the positive control well was a well without a compound (DMSO-treated well), and the negative control well was a well without LPS stimulation.
Dose response curve fitting: Log(inhibitor) vs. response−Variable slope (four parameters) in GraphPad Prism 6 was used for fitting equation analysis of the compound concentration and the corresponding inhibition rate, and the curve was fitted to obtain the IC50 value of the compound.
(§1) The fitting calculation equation was Y=Bottom+(Top−Bottom)/(1+10^((Log IC50−X)*HillSlope)).

For the next assay, the target named is T1, p38α/MK2 (Homo sapiens, UniProt P49137+Q16539).
T1 construct: purchased R & D systems (p38 alpha); Thermo (MK2) 5477-KS-010; PV3316
Kind of assay: Inhibition of p38α/MK2 enzyme activity (TR-FRET, ULight-CREBtide). As to conditions: for IC50: 0.06 nM p38a, 1.2 nM MK2, 25 μM ATP, read-out: p38/MK2 IC50; for Selectivity ratio (p38 IC50 / p38/MK2 IC50): selectivity ratio p38 IC50 over p38/MK2 IC50. It counts as biochemical. The protocol:
(§2) 50 nM ULight-CREBtide and 25 μM ATP (ATP Solution) were added, and the mixture was reacted at room temperature for 1.5 hours. An equal volume of a detection and termination mixed solution (1×LANCE detection buffer containing 20 mM EDTA and 2 nM Europium-anti-phospho-CREB) was added, the mixture was mixed until uniform and centrifuged, a plate sealing film was attached, and a reaction was performed at room temperature for 1 hour. TR-FRET program of the EnVision instrument was used to read the plate, and the fluorescence value of each well was detected at 665 nm/615 nm.
(§3) Calculation was performed on the raw data (665 nm/615 nm reading ratio) according to the following formula to obtain the inhibition rate. Inhibition rate %=[(mean value in positive control well−value in sample well)/(mean value in positive control well−mean value in negative control well)]×100, wherein the positive control well was a reaction well without a compound […], and the negative control well was a reaction wells without an enzyme.
(§4) Log(inhibitor) vs. response−Variable slope (four parameters) in GraphPad Prism 6 was used for fitting equation analysis of the compound concentration and the corresponding inhibition rate, and the curve was fitted to obtain the IC50 value of the compound.
as §1

The target of assay [1] is T2, p38a (Active p38 alpha Protein) (Homo sapiens, UniProt Q16539).
T2 construct: purchased R & D systems 5477-KS-010
Kind of assay: Inhibition of p38 enzyme activity (TR-FRET, ULight-MBP). It counts as biochemical. Conditions: 3 nM p38a, 50 μM ATP. Here is the method:
as §2, with “Experimental method for determining the p38 enzyme activity: 3 nM p38a (Active p38 alpha Protein) and compounds diluted in a certain concentration gradient were incubated in 1× enzyme reaction buffer (50 mM HEPES pH 7.5, 1 mM EGTA, 10 mM MgCl2, 2 mM DTT, 0.01% Tween-20) for 1 hour. 50” for “50”, “ULight-MBP” for “ULight-CREBtide”, “50” for “25”, “(ATP 10 mM” for “(ATP”, “Europium-anti-P-MBP)” for “Europium-anti-phospho-CREB)”
as §3, §4, §1
(In general: In TR-FRET formats the signal depends on donor and acceptor labels being close together.)

SMILES strings stand for the structures.

T2 sequence (Q16539 whole entry): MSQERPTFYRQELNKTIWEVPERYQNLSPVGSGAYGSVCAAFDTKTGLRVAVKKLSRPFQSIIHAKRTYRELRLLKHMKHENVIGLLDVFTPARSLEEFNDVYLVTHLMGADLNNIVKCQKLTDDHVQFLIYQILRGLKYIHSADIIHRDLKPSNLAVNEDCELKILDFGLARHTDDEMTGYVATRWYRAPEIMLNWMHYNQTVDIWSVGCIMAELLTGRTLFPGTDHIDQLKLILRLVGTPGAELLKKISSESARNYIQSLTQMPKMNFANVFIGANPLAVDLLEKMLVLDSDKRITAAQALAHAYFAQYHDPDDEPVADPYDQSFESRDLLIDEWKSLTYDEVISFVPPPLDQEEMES
T1 sequence (Q16539 whole entry): as above
T1 sequence (P49137 whole entry): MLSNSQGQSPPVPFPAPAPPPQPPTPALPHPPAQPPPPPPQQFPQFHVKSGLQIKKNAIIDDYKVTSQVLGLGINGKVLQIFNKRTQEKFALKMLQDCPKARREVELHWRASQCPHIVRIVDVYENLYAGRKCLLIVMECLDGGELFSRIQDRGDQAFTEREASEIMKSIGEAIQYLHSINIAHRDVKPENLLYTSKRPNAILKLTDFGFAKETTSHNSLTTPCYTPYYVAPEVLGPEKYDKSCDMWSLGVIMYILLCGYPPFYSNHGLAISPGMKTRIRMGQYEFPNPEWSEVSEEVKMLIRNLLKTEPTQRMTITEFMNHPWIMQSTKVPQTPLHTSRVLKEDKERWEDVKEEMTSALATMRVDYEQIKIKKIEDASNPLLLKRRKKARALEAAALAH

Regarding `[2H]C([2H])(Oc1cc2n(c(=O)c1Cl)-c1cc(-c3ccnc(C(C)(C)O)n3)ncc1CCCC2)c1ncc(F)cc1F` [Example 1-1, (S)-11-Chloro-10-((3,5-difluoropyridin-2-yl)methoxy-d2)-2-(2-(2-hydroxypropan-2-yl)pyrimidin-4-yl)-5,6,7,8-tetrahydro-12H-dipyrido[1,2-a:3′,4′-g]azol-12-one], the IC50 with TNF-α in U937 cells came to 1.2 nM; in the assay on p-Hsp27 in U937 cells, 0.17 nM; on p38α/MK2, 0.71 nM; in assay [1], 77.4 nM. The “Selectivity ratio (p38 IC50 / p38/MK2 IC50)” value at p38α/MK2 came out at 109.
As to `[2H]C([2H])(Oc1cc2n(c(=O)c1Cl)-c1cc(-n3ccc(C(C)(C)O)n3)ncc1CCCC2)c1ncc(F)cc1F` [Example 2-1, (S)-11-chloro-10-((3,5-difluoropyridin-2-yl)methoxy-d2)-2-(3-(2-hydroxypropan-2-yl)-1H-pyrazol-1-yl)-5,6,7,8-tetrahydro-12H-dipyrido[1,2-a:3′,4′-g]azol-12-one], the IC50 was determined as 0.33 nM in the assay with TNF-α in U937 cells, 0.28 nM with p-Hsp27 in U937 cells and 0.42 nM on p38α/MK2.
Turning to `[2H]C([2H])(Oc1cc2n(c(=O)c1Cl)-c1cc(-n3cc(F)c(C(C)(C)NC(C)=O)n3)ncc1CCCC2)c1ncc(F)cc1F` [Example 3-1, (S)—N-(2-(1-(11-chloro-10-((3,5-difluoropyridin-2-yl)methoxy-d2)-12-carbonyl-6,7,8,12-tetrahydro-5H-dipyrido[1,2-a:3′,4′-g]azocin-2-yl)-4-fluoro-1H-pyrazol-3-yl)propan-2-yl)acetamide], the results for the IC50 in the assay on TNF-α in U937 cells, in the assay on p-Hsp27 in U937 cells and on p38α/MK2 were 0.18 nM, 0.15 nM and 0.18 nM, respectively.
Regarding `[2H]C([2H])(Oc1cc2n(c(=O)c1Cl)-c1cc(-c3ccnc(C(C)(C)NC(C)=O)n3)ncc1CCCC2)c1ncc(F)cc1F` [Example 4-1, (S)—N-(2-(4-(11-chloro-10-((3,5-difluoropyridin-2-yl)methoxy-d2)-12-carbonyl-6,7,8,12-tetrahydro-5H-dipyrido[1,2-a:3′,4′-g]azocin-2-yl)pyrimidin-2-yl)propan-2-yl)acetamide], the IC50 with TNF-α in U937 cells is 1.2 nM; in the assay on p-Hsp27 in U937 cells it was 0.35 nM.
As to `[2H]C([2H])(Oc1cc(C)n(-c2cc(-n3cccc(C(C)(C)NC(C)=O)c3=O)ncc2C)c(=O)c1Cl)c1ncc(F)cc1F` [Example 5-1, (S)—N-(2-(3″-chloro-4″-((3,5-difluoropyridin-2-yl)methoxy-d2)-5′,6″-dimethyl-2,2″-dicarbonyl-2H,2″H-[1,2′:4′,1″-terpyridin]-3-yl)propan-2-yl)acetamide], on p38α/MK2, the IC50 came out at 0.79 nM and the “Selectivity ratio (p38 IC50 / p38/MK2 IC50)” value was found to be 666. This compound yielded an IC50 in assay [1] of 526 nM.
Regarding `[2H]C([2H])(Oc1cc2n(c(=O)c1Cl)-c1c(cnc(-n3ccc(C(C)(C)O)n3)c1F)CCCC2)c1ncc(F)cc1F` [Example 8-1, (R)-11-chloro-10-((3,5-difluoropyridin-2-yl)methoxy-d2)-1-fluoro-2-(3-(2-hydroxypropan-2-yl)-1H-pyrazol-1-yl)-5,6,7,8-tetrahydro-12H-dipyrido[1,2-a:3′,4′-g]azocin-12-one], the IC50 is 0.19 nM in the assay with TNF-α in U937 cells, 0.22 nM in the assay with p-Hsp27 in U937 cells and 0.25 nM on p38α/MK2.
As for `[2H]C([2H])(Oc1cc(C)n(-c2cc(-n3cccc(C(C)(C)O)c3=O)ncc2Cl)c(=O)c1Cl)c1ncc(F)cc1F` [Example 10-1, (S)-3″,5′-dichloro-4″-((3,5-difluoropyridin-2-yl)methoxy-d2)-3-(2-hydroxypropan-2-yl)-6″-methyl-2H,2″H-[1,2′:4′,1″-terpyridine]-2,2″-dione], the IC50 with TNF-α in U937 cells was found to be 0.1 nM; with p-Hsp27 in U937 cells, 0.13 nM; at p38α/MK2, 0.13 nM.
With `[2H]C([2H])(Oc1cc(C)n(-c2cc(-n3cccc(C(C)(C)O)c3=O)ncc2C)c(=O)c1Cl)c1ncc(F)cc1F` [Example 11-1, (S)-3″-chloro-4″-((3,5-difluoropyridin-2-yl)methoxy-d2)-3-(2-hydroxypropan-2-yl)-5′,6″-dimethyl-2H,2″H-[1,2′:4′,1″-terpyridine]-2,2″-dione], the IC50 in the assay on TNF-α in U937 cells was 0.21 nM; in the assay on p-Hsp27 in U937 cells it was 0.1 nM; at p38α/MK2, 0.28 nM; in assay [1], 96.9 nM. For the same compound, the “Selectivity ratio (p38 IC50 / p38/MK2 IC50)” value on p38α/MK2 turned out to be 346.
Take `[2H]C([2H])(Oc1cc2n(c(=O)c1Cl)-c1cc(-c3ccnc(C(C)(C)O)n3)ncc1/C=C\CC2)c1ncc(F)cc1F` [Example 16-1, (S,Z)-11-chloro-10-((3,5-difluoropyridin-2-yl)methoxy-d2)-2-(2-(2-hydroxypropan-2-yl)pyrimidin-4-yl)-7,8-dihydro-12H-dipyrido[1,2-a:3′,4′-g]azocin-12-one]: the IC50 turned out to be 0.85 nM in the assay on TNF-α in U937 cells, 0.28 nM in the assay with p-Hsp27 in U937 cells and 0.49 nM on p38α/MK2.
For the compound `[2H]C([2H])(Oc1cc2n(c(=O)c1Cl)-c1cc(-n3ccc(C(C)(C)O)n3)ncc1/C=C\CC2)c1ncc(F)cc1F` [Example 17-1, (S,Z)-11-chloro-10-((3,5-difluoropyridin-2-yl)methoxy-d2)-2-(3-(2-hydroxypropan-2-yl)-1H-pyrazol-1-yl)-7,8-dihydro-12H-dipyrido[1,2-a:3′,4′-g]azocin-12-one], the IC50 on p38α/MK2 is 0.27 nM.
Take `[2H]C([2H])(Oc1cc2n(c(=O)c1Cl)-c1cc(-n3cc(F)c(C(C)(C)NC(C)=O)n3)ncc1/C=C\CC2)c1ncc(F)cc1F` [Example 18-1, (S,Z)—N-(2-(1-(11-chloro-10-((3,5-difluoropyridin-2-yl)methoxy-d2)-12-carbonyl-8,12-dihydro-7H-dipyrido[1,2-a:3′,4′-g]azocin-2-yl)-4-fluoro-1H-pyrazol-3-yl)propan-2-yl)acetamide]: the IC50 on p38α/MK2 stood at 0.12 nM.
As to `[2H]C([2H])(Oc1cc2n(c(=O)c1Cl)-c1cc(-n3cccc(C(C)(C)O)c3=O)ncc1/C=C\CC2)c1ncc(F)cc1F` [Example 19-1, (S,Z)-11-chloro-10-((3,5-difluoropyridin-2-yl)methoxy-d2)-2-(3-(2-hydroxypropan-2-yl)-2-carbonylpyridin-1(2H)-yl)-7,8-dihydro-12H-dipyrido[1,2-a:3′,4′-g]azocin-12-one], the IC50 on p38α/MK2 stood at 0.12 nM.
